Read-outs that look alike come from different tables or passages of the source.
How the values were obtained:
PKCε = target: T1, PKCε (Homo sapiens, UniProt Q02156); test: PKC assay with purified PKCε; type: biochemical
T1 construct: purchased Calbiochem
T1 sequence (Q02156 1-737): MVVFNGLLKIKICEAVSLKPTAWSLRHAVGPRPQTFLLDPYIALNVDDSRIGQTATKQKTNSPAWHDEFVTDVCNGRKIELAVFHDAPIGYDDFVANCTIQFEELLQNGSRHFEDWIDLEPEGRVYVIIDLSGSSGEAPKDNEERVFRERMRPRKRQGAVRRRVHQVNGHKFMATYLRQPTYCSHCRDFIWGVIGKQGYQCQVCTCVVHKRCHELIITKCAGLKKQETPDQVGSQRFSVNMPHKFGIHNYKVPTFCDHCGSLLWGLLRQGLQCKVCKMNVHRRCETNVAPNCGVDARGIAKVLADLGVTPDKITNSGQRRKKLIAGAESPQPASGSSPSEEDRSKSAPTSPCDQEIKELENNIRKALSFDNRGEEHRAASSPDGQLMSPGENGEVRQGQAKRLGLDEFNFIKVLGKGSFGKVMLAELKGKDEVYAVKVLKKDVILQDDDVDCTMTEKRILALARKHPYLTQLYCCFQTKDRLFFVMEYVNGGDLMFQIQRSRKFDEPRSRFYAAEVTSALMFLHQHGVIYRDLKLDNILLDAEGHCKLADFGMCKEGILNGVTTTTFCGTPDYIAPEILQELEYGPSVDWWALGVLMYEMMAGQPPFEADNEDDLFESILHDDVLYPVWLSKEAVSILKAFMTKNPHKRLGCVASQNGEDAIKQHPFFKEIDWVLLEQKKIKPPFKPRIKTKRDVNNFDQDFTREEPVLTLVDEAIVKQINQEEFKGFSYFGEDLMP
Method: PKC assay. […] 0.5 micro Ci[^γ32P]ATP was added. […] The reaction was stopped by spotting the reaction mixtures on 1×2 cm strips of cellulose phosphate paper (Whatman P81) and immediately washing twice for 1 hr in 0.5% H3PO4. The cellulose phosphate strips were counted in a scintillation counter. In some experiments, phosphatidylserine, diacylglycerol, and/or calcium were removed. […]
To determine their PKC isozyme specificity, fatty acid derivatives were preincubated with purified PKC for five minutes and the PKC activity was measured radiometrically.

[1] = test system: Endothelin-converting enzyme (ECE); test: Endothelin-converting enzyme (ECE) activity in neuroblastoma cells; type: cell-based, human; details: bryostatin 0.27 nM, BR-101 1 μM, BR-111 1 μM
Method: ECE assay. […] neuroblastoma cells were incubated with bryostatin (0.27 nM), BR-101 (DCP-LA) (1 μM), and BR-111 (DHA-CP6) (1 μM). Endothelin-converting enzyme (ECE) was measured fluorimetrically using the method of Johnson and Ahn (Anal. Biochem. (2000), vol. 286, pp. 112-118). A sample of cell homogenate (20 μl) was incubated in 50 mM MES-KOH, pH 6.0, 0.01% C12E10 (polyoxyethylene-10-lauryl ether), and 15 μM McaBK2 (7-Methoxycoumarin-4-acetyl [Ala7-(2,4-Dinitrophenyl)Lys9]-bradykinin trifluoroacetate salt) (Sigma-Aldrich). After 60 min at 37° C., the reaction was quenched by adding trifluoroacetic acid to 0.5%. The sample was diluted to 1.4 ml with water and the fluorescence was measured at ex=334 nm, em=398 nm.

Aβ [2] = test: Aβ production in N2a neuroblastoma cells transfected with human APPSwe/PSID; type: cell-based, mouse; details: 24 hours; for levels of intracellular Aβ / levels of secreted Aβ: various concentrations
Method: (§1) Cell culture. Rat hippocampal H19-7/IGF-IR cells (ATCC, Manassas, Va.) were plated onto poly-L-lysine coated plates and grown at 35° C. in DMEM/10% FCS for several days until about 50% coverage was obtained. The cells were then induced to differentiate into a neuronal phenotype by replacing the medium with 5 ml N2 medium containing 10 ng/ml basic fibroblast growth factor at 39° C. and grown in T-75 flasks at 37° C. Human SH-SY5Y neuroblastoma cells (ATCC) were cultured in 45% F12K/45% MEM/10% FCS. Mouse N2A neuroblastoma cells were cultured in DMEM/10% FCS without glutamine. Rat hippocampal neurons from 18-day-old embryonic Sprague Dawley rat brains were plated on 12- or 96-well plates coated with poly-D-lysine (Sigma-Aldrich, St. Louis, Mo.) in B-27 neurobasal medium containing 0.5 mM glutamine and 25 μM glutamate (Invitrogen, Carlsbad, Calif.) and cultured for three days in the medium without glutamate. The neuronal cells were grown under 5% CO2 in an incubator maintained at 37° C. for 14 days.
(§2) Aβ Measurement and Cell Viability Assay. Aβ was measured using an Aβ 1-42 human fluorimetric ELISA kit (Invitrogen) according to the manufacturer's instructions. Results were measured in a Biotek Synergy HT microplate reader. AlamarBlue and CyQuant NF (Invitrogen) according to the manufacturer's instructions.
To measure the effects of PKCε activation on Aβ production, mouse neuro2a (N2a) neuroblastoma cells transfected with human APPSwe/PSID were used, which produce large quantities of Aβ. Petanceska et al., J. Neurochem. (1996), vol. 74, pp. 1878-1884. […] With bryostatin, which activates PKC by binding to the diacylglycerol-binding site, the inhibition was biphasic with concentrations of 20 nM or higher producing no net effect. This may be explained by the ability of this class of PKC activators to downregulate PKC when used at high concentrations.

Aβ [3] = test: Degradation of exogenously applied Aβ in SH-SY5Y cells; type: cell-based, human; details: 0.01 μM to 10 μM; 100 nM exogenous Aβ-42; 24 hours
Method: as §1, §2
This concentration of Aβ is too low to produce measurable toxicity or cell death. […]

[4] = test system: SH-SY5Y neuroblastoma cells; test: Cell survival and proliferation (alamar Blue, CyQuant); type: cell-based, human; details: alamar Blue and CyQuant staining
Method: as §2

TACE = TACE activity in neuronal cells; type: cell-based, human, mouse; details: SH-SY5Y cells, N2a cells, primary neurons from rat hippocampus
Method: TACE Assay. TACE was measured by incubating 5 μl cell homogenate, 3 μl buffer (50 mM Tris-HCl 7.4 plus 25 mM NaCl plus 4% glycerol), and 1 μl of 100 μM TACE substrate (Aβz-[…]-DPa) (Calbiochem) for 20 min at 37° C. 1.5-ml polypropylene centrifuge tubes. Jin et al., Anal. Biochem. (2002), vol. 302, pp. 269-275. The reaction was stopped by cooling to 4° C. The samples were diluted to 1 ml and the fluorescence was rapidly measured (ex=320 nm, em=420 nm) in a Spex Fluorolog 2 spectrofluorometer.

PKC [5] = test: PKC activation over time in H19-7/IGF-IR hippocampal cells; type: cell-based, rat
Method: as §1
Protein kinase C assay. Rat hippocampal cells were cultured and scraped in 0.2 ml homogenization buffer (20 mM Tris-HCl, pH 7.4, 50 mM NaF, 1 μg/ml leupeptin, and 0.1 mM PMSF) and homogenized by sonication a Marsonix microprobe sonicator (5 sec, 10W). To measure PKC, 10 μl of cell homogenate or purified PKC isozyme (purchased from Calbiochem) was incubated for 15 min at 37° C. in the presence of 10 μM histones, 4.89 mM CaCl2, 1.2 μg/μl phosphatidyl-L-serine, 0.18 μg/μl 1,2-dioctanoyl-sn-glycerol, 10 mM MgCl2, 20 mM HEPES (pH 7.4), 0.8 mM EDTA, 4 mM EGTA, 4% glycerol, 8 μg/ml aprotinin, 8 μg/ml leupeptin, and 2 mM benzamidine. 0.5 Ci [^γ32P]ATP was added and ^32P-phosphoprotein formation was measured by adsorption onto phosphocellulose as described previously. Nelson and Alkon, J. Neurochemistry (1995), vol. 65, pp. 2350-2357. For measurements of activation by BR-101 (DCP-LA) and similar compounds. PKC activity was measured in the absence of diacylglycerol and phosphatidylserine and PKC δ, ε, η, and μ were measured in the absence of added EGTA and CaCl2, as described by Kanno et al. (J. Lipid Res. 2006, vol. 47, pp. 1146-1150). Low concentrations of Ca^2+ are used because high Ca^2+ interacts with the PKC phosphatidylserine binding site and prevents activation. For measurements of bryostatin activation, 1,2-diacylglycerol was omitted unless otherwise stated.

α-secretase = details: cited from earlier work
PKC [6] = details: competition with [3H] phorbol dibutyrate; cited from earlier work
NIC 60 cell line screen = details: cited from earlier work
protein kinase C = details: (−)-enantiomer; read-out: potency (EC50); cited from earlier work

With `CCC1CC1CC1CC1CC1CC1CC1CC1CC1CC1CC1CC1CCC(=O)OC` (stereo not drawn) [BR-111, methyl-3-(2-((2-((2-((2-((2-((2-ethylcyclopropyl)methyl)cyclopropyl)methyl)cyclopropyl)methyl)-cyclopropyl)methyl)cyclopropyl)methyl)cyclopropyl)propanoate] the “concentration needed to activate PKC, times lower than for BR-101 (DCP-LA)” value (PKCε) was “approximately 100 times”, the “effect on purified PKCε (FIG. 7, FIG. 8)” value (PKCε; preincubated five minutes, radiometric) was “activated” and the ECE activity [1] was “sustained increase”. For the same compound, the “levels of intracellular Aβ” value (Aβ [2]) was “markedly reduced”, the “levels of secreted Aβ” value (Aβ [2]) was “markedly reduced” and the “concentration dependence of Aβ inhibition” value (Aβ [2]; fatty acid derivatives up to 10 μM to 100 μM) was “monotonically increasing inhibition”. The “reduction of cellular levels of Aβ” value (Aβ [3]) was 45%-63%, the “effect on cell survival” value [4] was “no effect” and the effect on proliferation [4] was “no effect”. The TACE activity (TACE) was “small increases”.

For `CCC/C=C/C=C/C(=O)O[C@H]1/C(=C/C(=O)OC)C[C@H]2C[C@H]([C@@H](C)O)OC(=O)C[C@H](O)C[C@@H]3C[C@H](OC(C)=O)C(C)(C)[C@](O)(C[C@@H]4C/C(=C/C(=O)OC)C[C@H](/C=C/C(C)(C)[C@]1(O)O2)O4)O3` [Bryostatin-1], the ECE activity [1] was “sustained increase”, the “levels of intracellular Aβ” value (Aβ [2]) was “markedly reduced” and the “levels of secreted Aβ” value (Aβ [2]) was “markedly reduced”. The “effect on cell survival” value [4] was “no effect”, the TACE activity (TACE) was “small increases” and the “PKC downregulation following activation” value (PKC [5]; 0.04 nM and 0.2 nM) was 20%. For the same compound, the “time of return of PKC to baseline” value (PKC [5]; 0.04 nM and 0.2 nM) was no more than 24 h, the PKC activation (PKC [5]; 0.04 nM and 0.2 nM, data not shown) was 2 fold and the “PKC activity at 8 hours (downregulation)” value (PKC [5]; 8 hours, data not shown) was “at or near the baseline”. The “increase of initial rate of α-secretase activity” value (α-secretase; 10 μM) was 16 fold and the “increase of initial rate of α-secretase activity” value (α-secretase; 100 μM) was 132 fold.

For `CC1=C[C@]23C(=O)[C@@H](C=C(COC(=O)c4ccccc4)[C@@H](O)[C@]2(O)[C@H]1OC(=O)c1ccccc1)[C@H]1[C@@H](C[C@H]3C)C1(C)C` [Ingenol 3,20-dibenzoate], the Ki (PKC [6]) is listed as 240 nM.

For `CC1=CC[C@H](C)C(C)(C)[C@@H]1/C=C/C(C)=C/CC[C@@]1(CO)[C@H](CCCO)/C(=C(/C)C=O)CC[C@]1(C)O` [Iripallidal], the “GI50 (concentration required to inhibit growth by 50%)” value (NIC 60 cell line screen) is listed as “micromolar to nanomolar range”.

For `CCCCCCCCc1ccc2c3c(c[nH]c13)C[C@@H](CO)NC(=O)[C@H](C(C)C)N2C` [Octylindolactam V], the EC50 (protein kinase C) is given as 29 nM.

Reference: patent publication US20120027687A1, “FATTY ACID PROTEIN KINASE C ACTIVATORS AND ANTICOAGULANT FOR THE TREATMENT OF STROKE” (priority 2010, published 2012)
